US9226916B2, “Pyrrolidine derivatives” (HOFFMANN-LA ROCHE INC., priority 2009, dated 2016)

Target: T1, recombinant human NK3 receptor (Homo sapiens, UniProt P29371)
T1 construct: expressed in transfected cells; host or cells: HEK293 cells, transient expression; membranes
T1 sequence (P29371 1-465): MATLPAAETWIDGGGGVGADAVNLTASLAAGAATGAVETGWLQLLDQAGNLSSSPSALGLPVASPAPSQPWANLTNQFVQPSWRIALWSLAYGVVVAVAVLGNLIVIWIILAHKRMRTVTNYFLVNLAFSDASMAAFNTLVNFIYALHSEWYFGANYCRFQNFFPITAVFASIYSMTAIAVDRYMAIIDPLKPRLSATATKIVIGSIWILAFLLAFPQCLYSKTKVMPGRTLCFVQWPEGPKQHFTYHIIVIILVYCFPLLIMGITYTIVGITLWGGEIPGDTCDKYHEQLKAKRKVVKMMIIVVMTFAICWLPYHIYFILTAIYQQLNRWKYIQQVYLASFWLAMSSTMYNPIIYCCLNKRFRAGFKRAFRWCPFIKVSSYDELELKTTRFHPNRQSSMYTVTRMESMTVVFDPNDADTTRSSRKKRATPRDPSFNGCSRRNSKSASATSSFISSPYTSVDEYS
Assay: [3H]SR142801 competition binding assay
Conditions: not given

Structure (SMILES)	Ki
Cc1ccc(OC(=O)N(C)[C@H]2CN(C(=O)C3CCN(CC4CC4)CC3)C[C@@H]2c2ccc(Cl)c(Cl)c2)cc1 (racemic) [Example 8, rac-[(3R,4S)-1-(1-Cyclopropylmethyl-piperidine-4-carbonyl)-4-(3,4-dichloro-phenyl)-pyrrolidin-3-yl]-methyl-carbamic acid p-tolyl ester]	4 nM
CN(C(=O)Oc1ccc(F)cc1)[C@@H]1CN(C(=O)C2CCN(C(=O)C3CCOCC3)CC2)C[C@H]1c1ccc(Cl)c(Cl)c1 [Example 275, {(3S,4R)-4-(3,4-Dichloro-phenyl)-1-[1-(tetrahydro-pyran-4-carbonyl)-piperidine-4-carbonyl]-pyrrolidin-3-yl}-methyl-carbamic acid 4-fluoro-phenyl ester]	0.9 nM
CN(C(=O)Oc1ccncc1)[C@@H]1CN(C(=O)C2CCN(C(=O)C3(C)CC3)CC2)C[C@H]1c1ccc(Cl)c(Cl)c1 [Example 297, {(3S,4R)-4-(3,4-Dichloro-phenyl)-1-[1-(1-methyl-cyclopropanecarbonyl)-piperidine-4-carbonyl]-pyrrolidin-3-yl}-methyl-carbamic acid pyridin-4-yl ester]	5.9 nM
Cc1ccc(OC(=O)N(C)[C@@H]2CN(C(=O)C3CCN(C(=O)C4(C)CC4)CC3)C[C@H]2c2ccc(Cl)c(Cl)c2)cc1 [Example 17, {(3S,4R)-4-(3,4-Dichloro-phenyl)-1-[1-(1-methyl-cyclopropanecarbonyl)-piperidine-4-carbonyl]-pyrrolidin-3-yl}-methyl-carbamic acid p-tolyl ester]	0.7 nM
CN(C(=O)Oc1ccc(F)cc1)[C@@H]1CN(C(=O)C2CCN(c3ccc(C(F)(F)F)cn3)CC2)C[C@H]1c1ccc(Cl)c(Cl)c1 [Example 306, [(3S,4R)-4-(3,4-Dichloro-phenyl)-1-(5′-trifluoromethyl-3,4,5,6-tetrahydro-2H-[1,2′]bipyridinyl-4-carbonyl)-pyrrolidin-3-yl]-methyl-carbamic acid 4-fluoro-phenyl ester]	0.7 nM
CN(C(=O)Oc1ccc(F)cc1)[C@H]1CN(C(=O)[C@H]2CC[C@H](O)CC2)C[C@@H]1c1ccc(Cl)c(Cl)c1 (racemic) [Example 37, rac-[(3R,4S)-4-(3,4-Dichloro-phenyl)-1-(trans-4-hydroxy-cyclohexanecarbonyl)-pyrrolidin-3-yl]-methyl-carbamic acid 4-fluoro-phenyl ester]	0.7 nM
CN(C(=O)Oc1ccc(F)cc1)[C@@H]1CN(C(=O)C2CCN(C(=O)C3(C)COC3)CC2)C[C@H]1c1ccc(Cl)cc1 [Example 248, {(3S,4R)-4-(4-Chloro-phenyl)-1-[1-(3-methyl-oxetane-3-carbonyl)-piperidine-4-carbonyl]-pyrrolidin-3-yl}-methyl-carbamic acid 4-fluoro-phenyl ester]	2.8 nM
CN(C(=O)Oc1ccc(F)cc1)[C@@H]1CN(C(=O)C2CCN(C3CCS(=O)(=O)CC3)CC2)C[C@H]1c1ccc(Cl)cc1 [Example 109, {(3S,4R)-4-(4-Chloro-phenyl)-1-[1-(1,1-dioxo-hexahydro-1λ^6-thiopyran-4-yl)-piperidine-4-carbonyl]-pyrrolidin-3-yl}-methyl-carbamic acid 4-fluoro-phenyl ester]	0.2 nM
CN(C(=O)OCc1ccc(F)cc1)[C@H]1CN(C(=O)C2CCN(C(=O)C3(C)CC3)CC2)C[C@@H]1c1ccc(Cl)c(Cl)c1 (racemic) [Example 95, rac-{(3R,4S)-4-(3,4-Dichloro-phenyl)-1-[1-(1-methyl-cyclopropanecarbonyl)-piperidine-4-carbonyl]-pyrrolidin-3-yl}-methyl-carbamic acid 4-fluoro-benzyl ester]	5.8 nM
CN(C(=O)Oc1ccc(F)cc1)[C@@H]1CN(C(=O)C2CCN(c3ncc(F)cn3)CC2)C[C@H]1c1ccc(Cl)cc1 [Example 169, {(3S,4R)-4-(4-Chloro-phenyl)-1-[1-(5-fluoro-pyrimidin-2-yl)-piperidine-4-carbonyl]-pyrrolidin-3-yl}-methyl-carbamic acid 4-fluoro-phenyl ester]	4.1 nM
CO[C@H]1CC[C@@H](C(=O)N2C[C@H](c3ccc(Cl)c(Cl)c3)[C@@H](N(C)C(=O)Oc3ccc(F)cc3)C2)CC1 (racemic) [Example 49, rac-[(3R,4S)-4-(3,4-Dichloro-phenyl)-1-(cis-4-methoxy-cyclohexanecarbonyl)-pyrrolidin-3-yl]-methyl-carbamic acid 4-fluoro-phenyl ester]	3.5 nM
Cc1ccc([C@H]2CN(C(=O)C3CCN(C(=O)C4(C)CC4)CC3)C[C@@H]2N(C)C(=O)Oc2ccc(F)cc2)cc1Cl (racemic) [Example 70, rac-{(3R,4S)-4-(3-Chloro-4-methyl-phenyl)-1-[1-(1-methyl-cyclopropanecarbonyl)-piperidine-4-carbonyl]-pyrrolidin-3-yl}-methyl-carbamic acid 4-fluoro-phenyl ester]	1.3 nM
CN(C(=O)Oc1ccc(F)cc1)[C@@H]1CN(C(=O)C2CCN(C(=O)C3CC3(C)C)CC2)C[C@H]1c1ccc(Cl)c(Cl)c1 (stereo partly drawn) [Example 278, {(3S,4R)-4-(3,4-Dichloro-phenyl)-1-[1-(2,2-dimethyl-cyclopropanecarbonyl)-piperidine-4-carbonyl]-pyrrolidin-3-yl}-methyl-carbamic acid 4-fluoro-phenyl ester]	0.6 nM
CN(C(=O)Oc1ccc(F)cc1)[C@@H]1CN(C(=O)C2CCN(c3ccc(C#N)cn3)CC2)C[C@H]1c1ccc(F)cc1 [Example 131, [(3S,4R)-1-(5′-Cyano-3,4,5,6-tetrahydro-2H-[1,2′]bipyridinyl-4-carbonyl)-4-(4-fluoro-phenyl)-pyrrolidin-3-yl]-methyl-carbamic acid 4-fluoro-phenyl ester]	1 nM
CN(C(=O)Oc1ccc(F)cc1)[C@@H]1CN(C(=O)C2CCN(c3ncc(Cl)cn3)CC2)C[C@H]1c1ccc(Cl)cc1 [Example 184, {(3S,4R)-4-(4-Chloro-phenyl)-1-[1-(5-chloro-pyrimidin-2-yl)-piperidine-4-carbonyl]-pyrrolidin-3-yl}-methyl-carbamic acid 4-fluoro-phenyl ester]	6.7 nM

Same assay, conditions: hNK-3 receptor affinity; membranes from HEK293 cells transiently expressing recombinant human NK3 receptor; [3H]SR142801; Cheng-Prussoff; read-out: Data Ki

Structure (SMILES)	Ki
CN(C(=O)OCCCF)[C@@H]1CN(C(=O)C2CCN(c3ccc(C#N)cn3)CC2)C[C@H]1c1ccc(Cl)cc1 [Example 214, [(3S,4R)-4-(4-Chloro-phenyl)-1-(5′-cyano-3,4,5,6-tetrahydro-2H-[1,2′]bipyridinyl-4-carbonyl)-pyrrolidin-3-yl]-methyl-carbamic acid 3-fluoro-propyl ester]	94.2 nM
CN(C(=O)OC1CCCC1)[C@@H]1CN(C(=O)C2CCN(c3ccc(C#N)cn3)CC2)C[C@H]1c1ccc(Cl)cc1 [Example 204, [(3S,4R)-4-(4-Chloro-phenyl)-1-(5′-cyano-3,4,5,6-tetrahydro-2H-[1,2′]bipyridinyl-4-carbonyl)-pyrrolidin-3-yl]-methyl-carbamic acid cyclopentyl ester]	41.2 nM
COCCCOC(=O)N(C)[C@@H]1CN(C(=O)C2CCN(c3ccc(C#N)cn3)CC2)C[C@H]1c1ccc(Cl)cc1 [Example 216, [(3S,4R)-4-(4-Chloro-phenyl)-1-(5′-cyano-3,4,5,6-tetrahydro-2H-[1,2′]bipyridinyl-4-carbonyl)-pyrrolidin-3-yl]-methyl-carbamic acid 3-methoxy-propyl ester]	53.6 nM
